Laboratory results taken from patent publication US11052072B2, “Pyrazolo[4,3-C] quinoline derivatives for inhibition of β-glucuronidase” (Kaohsiung Medical University, priority 2015, dated 2021).
Entries after “also recorded” stand apart in the source; their conditions may differ. Where two headings read alike, the source gives them in different places.

What was measured:
[1] = target: E. coli β-glucuronidase (eβG) (Escherichia coli, UniProt P05804); experiment: Inhibition of purified recombinant eβG activity (pNPG substrate, OD420); assay type: biochemical; conditions: for Inhibition efficacy of eβG activity compared with βG-Inh: FIG. 1; for remaining activity at 10 µM: read-out: Percent activity of E. coli-glucuronidase at 10 μM (%); for Selective inhibition of eβG versus hβG (in words): recombinant eβG and hβG, serial dilution of inhibitors (FIG. 1)
Sequence of E. coli β-glucuronidase (eβG) (P05804 whole entry): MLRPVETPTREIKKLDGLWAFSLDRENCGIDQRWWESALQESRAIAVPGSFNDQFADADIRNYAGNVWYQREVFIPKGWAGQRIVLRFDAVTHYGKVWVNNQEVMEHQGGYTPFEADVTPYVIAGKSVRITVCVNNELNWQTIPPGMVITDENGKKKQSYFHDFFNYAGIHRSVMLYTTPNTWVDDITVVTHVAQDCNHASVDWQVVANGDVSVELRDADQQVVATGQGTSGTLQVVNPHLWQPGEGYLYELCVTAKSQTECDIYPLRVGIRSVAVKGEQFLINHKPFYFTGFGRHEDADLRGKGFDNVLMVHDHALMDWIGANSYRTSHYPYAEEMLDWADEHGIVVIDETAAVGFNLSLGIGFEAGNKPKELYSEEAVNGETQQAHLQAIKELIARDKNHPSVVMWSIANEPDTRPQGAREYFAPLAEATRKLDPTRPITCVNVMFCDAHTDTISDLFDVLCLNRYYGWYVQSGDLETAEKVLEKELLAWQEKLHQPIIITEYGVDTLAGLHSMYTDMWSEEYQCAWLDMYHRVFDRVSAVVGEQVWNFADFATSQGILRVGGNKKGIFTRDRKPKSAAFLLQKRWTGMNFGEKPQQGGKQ
Experimental: (§1) The pyrazolo[4,3-c]quinoline derivatives were examined for their inhibition against eβG or hβG activity. Purified recombinant eβG or hβG proteins were incubated with serial dilution of the inhibitors, respectively. The βG activity was determined by color development of a βG substrate, pNPG. The hydrolysis product of pNPG, PNP was measured by OD420.

[2] = target: T1, human liver-glucuronidase (hβG) (Homo sapiens, UniProt P08236); experiment: Inhibition of purified recombinant hβG activity (pNPG substrate, OD420); assay type: biochemical; conditions: read-out: Percent activity of human liver-glucuronidase at 10 μM (%)
T1 sequence (P08236 23-651): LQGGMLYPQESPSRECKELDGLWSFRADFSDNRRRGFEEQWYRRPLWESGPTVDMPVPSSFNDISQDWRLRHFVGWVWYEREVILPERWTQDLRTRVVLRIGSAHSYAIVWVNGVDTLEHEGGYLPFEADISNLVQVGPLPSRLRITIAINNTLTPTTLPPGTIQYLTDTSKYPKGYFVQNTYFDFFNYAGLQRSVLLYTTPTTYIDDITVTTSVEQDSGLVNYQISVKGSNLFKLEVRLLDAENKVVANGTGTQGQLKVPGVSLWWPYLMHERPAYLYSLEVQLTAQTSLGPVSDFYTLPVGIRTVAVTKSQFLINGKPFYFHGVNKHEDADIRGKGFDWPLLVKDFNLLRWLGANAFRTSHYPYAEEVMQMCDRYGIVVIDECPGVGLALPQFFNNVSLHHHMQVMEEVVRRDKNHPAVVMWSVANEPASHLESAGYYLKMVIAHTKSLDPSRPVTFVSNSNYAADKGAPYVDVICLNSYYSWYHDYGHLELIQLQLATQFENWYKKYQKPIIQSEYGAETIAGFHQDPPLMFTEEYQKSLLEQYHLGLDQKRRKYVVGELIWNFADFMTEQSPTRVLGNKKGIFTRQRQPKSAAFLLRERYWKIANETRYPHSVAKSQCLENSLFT
Experimental: as §1

[3] = target: T2, endogenous eβG activity (Escherichia coli, UniProt P05804); experiment: Endogenous β-glucuronidase activity assay in BL21 E. coli cells; assay type: cell-based; conditions: at both low (10 μM) or high concentration (50 μM) (FIG. 2)
T2 construct: endogenous in cells; host or cells: BL21 E. coli
T2 sequence (P05804 whole entry): as the sequence (P05804 whole entry) above
Experimental: The pyrazolo[4,3-c]quinoline derivatives were examined for their inhibition against endogenous eβG activity. This assay is similar with the in vitro assay. BL21 E. coli cells were grown to an OD600 of 0.35 in LB medium. E. coli were 4 times diluted and incubated with each inhibitor. The endogenous eβG activity was measured by detecting PNP as described.

[4] = system: TOP10 E. coli cells; experiment: E. coli growth assay (OD600); assay type: cell-based; conditions: 100 μM; OD600 at 6 hour after treatment; TOP10 E. coli (FIG. 4)
Experimental: The pyrazolo[4,3-c]quinoline derivatives were examined for effects on the growth of E. coli. TOP10 E. coli cells were grown to an OD600 of 0.35 in LB medium and treated with each inhibitor. E. coli cell cultures were monitored by reading OD600 at 6 hour after treatment. The cell viability were compared to non-inhibitor control group and shown in % control.

[5] = system: intestinal βG activity; experiment: In vivo image of intestinal β-glucuronidase activity (FDGlcU pro-probe); set-up: species or system Balb/cJ mice; conditions: mice; for Inhibition of intestinal βG activity (fluorescence signal in the intestine): oral 60 μg/200 μl per day for five days, FDGlcU on sixth day (FIG. 5A)
Experimental: 17 (TCH-3511) or 32 (TCH-3510) was examined for its inhibition against intestinal βG activity in mice by in vivo image of eβG activity. 5 (TCH-3562), 17 (TCH-3511) or 32 (TCH-3510) was dissolved in ddH2O. Healthy 6-10 week old female Balb/cJ mice were oral administrated with 5 (TCH-3562), 17 (TCH-3511), 32 (TCH-3510) or ddH2O per day (60 μg/200 μl) for five consecutive days. FDGlcU, a βG fluorescent pro-probe was oral feed at the sixth day. The βG activity was detected by in vivo optical imaging system.

[6] = system: CPT-11 induced diarrhea; experiment: CPT-11 induced diarrhea in tumor-bearing mice; assay type: in vivo, Balb/cJ mice; conditions: 3 mg/kg/day oral with CPT-11 50 mg/kg/day i.p.; CT26 tumor-bearing mice (FIG. 6A)
Experimental: (§2) FIGS. 6A and B show the effects of 17 (TCH-3511) on diarrhea and antitumor activity of CPT-11. Mice were inoculated with CT26 cells on day −7. Either water or 17 (TCH-3511) 3 mg/kg/day was orally administrated per day throughout the experimental period (day 0 onward). Mice were given daily intraperitoneal either CPT-11 treatment (50 mg/kg/day) or saline staring on day 2. Diarrhea level and tumor size was scored every other day.
(§3) 17 (TCH-3511) was given to mice to test whether inhibition of intestinal βG by bacterial inhibitor 17 (TCH-3511) eliminates CPT-11-induced diarrhea and maintain the therapeutic efficacy in combination with CPT-11 in tumor-bearing mice. CT26 murine colon adenocarcinoma cells were s.c. implanted into Balb/cJ mice. After solid tumor formed, 17 (TCH-3511) (3 mg/kg/day) was provided orally along with intraperitoneal injection of CPT-11 (50 mg/kg/day). Signs of diarrhea were according to stool forms and the perianal staining of the anus.

[7] = system: CT26 murine colon adenocarcinoma cells; experiment: Anti-tumor efficacy of CPT-11 in CT26 tumor-bearing mice; assay type: in vivo, Balb/cJ mice; conditions: 3 mg/kg/day oral with CPT-11 50 mg/kg/day i.p.; CT26 tumors (FIG. 6B)
Experimental: as §2, §3

[8] = system: DMH induced tumorigenesis in the intestine; experiment: DMH induced tumorigenesis in the intestine; assay type: in vivo, C57BL/6J-APC^MIN/J mice
Experimental: Either water or 17 (TCH-3511) 3 mg/kg/day was orally administrated three times per week throughout the experimental period (8 week). Mice were given intraperitoneal DMH (30 mg/kg/week).
17 (TCH-3511) was given to C57BL/6J-APC^MIN/J mice to check whether prevent DMH-induced intestinal damage and tumorigenesis. 17 (TCH-3511) (3 mg/kg, 3 times/week) was provided orally along with intraperitoneal injection of DMH (30 mg/kg, once/week). After 8 weeks of treatment, mice were sacrificed and the tumor in the intestine was examined.

[9] = 10 μM, purified recombinant hβG, pNPG, means ± S.D. of at least three separate experiments

SMILES	Inhibition efficacy of eβG activity compared with βG-Inh [1]	remaining activity at 10 µM [1] [%]	Selective inhibition of eβG versus hβG (in words) [1]	remaining activity at 10 µM [2, 9] [%]	Inhibition efficacy of endogenous eβG activity compared with βG-Inh [3]	melting point [°C]	other results
Nc1n[nH]c2c1c(Nc1ccc(Cl)cc1)nc1ccccc12 [Compound 4, 3-Amino-4-(4-chlorophenylamino)-1H-pyrazolo[4,3-c]quinoline]	better inhibition efficacy of eβG activity than βG-Inh	4.5 ± 0.71	selectively inhibited eβG activity but not hβG	113 ± 2.83	better inhibition efficacy of endogenous eβG activity than βG-Inh	246 to 248	–
Cc1ccc(Nc2nc3ccccc3c3[nH]nc(N)c23)cc1 [Compound 5, 3-Amino-4-(4-methylphenylamino)-1H-pyrazolo[4,3-c]quinoline]	better inhibition efficacy of eβG activity than βG-Inh	4.5 ± 0.71	selectively inhibited eβG activity but not hβG	110 ± 2.12	better inhibition efficacy of endogenous eβG activity than βG-Inh	292 to 294	Effects on E. coli growth [4]: no effects on E. coli growth
Nc1n[nH]c2c1c(Nc1ccc(F)cc1)nc1ccccc12 [Compound 17, 3-Amino-4-(4-fluorophenylamino)-1H-pyrazolo[4,3-c]quinoline]	better inhibition efficacy of eβG activity than βG-Inh	5 ± 1	selectively inhibited eβG activity but not hβG	99 ± 1.41	better inhibition efficacy of endogenous eβG activity than βG-Inh	266 to 268	Effects on E. coli growth [4]: no effects on E. coli growth; Inhibition of intestinal βG activity, comparison between compounds ([5]; in vivo optical imaging (FIG. 5B)): better than 32 (THC-3510); Inhibition of intestinal βG activity (fluorescence signal in the intestine) ([5]; listed as 17 (TCH-3511)): significantly reduced the fluorescence signal in the intestine; also recorded: significantly inhibit intestinal βG activity; Effect on CPT-11 induced diarrhea [6]: can reduce CPT-11 induced diarrhea; Effect on anti-tumor efficacy of CPT-11 treatment [7]: no effects on the anti-tumor efficacy of CPT-11 treatment; Number of tumors in the intestine ([8]; 3 mg/kg oral 3 times/week with DMH 30 mg/kg i.p. once/week, after 8 weeks (FIG. 7), DMH only group more than 26): six; Effect on DMH-induced intestinal damage and tumorigenesis ([8]; 3 mg/kg oral 3 times/week with DMH 30 mg/kg/week i.p., 8 weeks (FIG. 7), listed as 17 (TCH-3511)): can reduce DMH-induced intestinal damage and prevent tumorigenesis
Nc1n[nH]c2c1c(Nc1ccccc1O)nc1ccccc12 [Compound 29, 3-Amino-4-(2-hydroxyphenylamino)-1H-pyrazolo[4,3-c]quinoline]	–	7 ± 1	–	104 ± 2.12	–	156 to 157	–
Cc1ccccc1Nc1nc2ccccc2c2[nH]nc(N)c12 [Compound 30, N^4-(o-Tolyl)-1H-pyrazolo[4,3-c]quinoline-3,4-diamine]	–	17 ± 2.1	–	95.69 ± 0.01	–	228 to 230	–
Nc1n[nH]c2c1c(Nc1ccccc1Cl)nc1ccccc12 [Compound 31, N^4-(2-Chlorophenyl)-1H-pyrazolo[4,3-c]quinoline-3,4-diamine]	–	29.7 ± 3	–	79.81 ± 0.01	–	243 to 244	–
COc1ccccc1Nc1nc2ccccc2c2[nH]nc(N)c12 [Compound 32, 3-Amino-4-(2-methoxyphenylamino)-1H-pyrazolo[4,3-c]quinoline]	better inhibition efficacy of eβG activity than βG-Inh	3.5 ± 0.71	selectively inhibited eβG activity but not hβG	–	better inhibition efficacy of endogenous eβG activity than βG-Inh	210 to 211	remaining activity at 10 µM [2]: 103 ± 1.41%; Effects on E. coli growth [4]: no effects on E. coli growth; Inhibition of intestinal βG activity (fluorescence signal in the intestine) [5]: significantly inhibit intestinal βG activity
COc1ccc(NC(=O)Nc2n[nH]c3c2c(=O)[nH]c2ccccc23)cc1 [Compound 35, 1-(4-Methoxyphenyl)-3-(4-oxo-4,5-dihydro-1H-pyrazolo[4,3-c]-quinolin-3-yl)urea]	–	52 ± 4.24	–	81.5 ± 0.71	–	224 to 225	–
O=C(Nc1ccccc1)Nc1n[nH]c2c1c(Nc1ccc(Cl)cc1)nc1ccccc12 [Compound 36, 1-{4-[(4-Chlorophenyl)amino]-1H-pyrazolo[4,3-c]quinolin-3-yl}-3-phenylurea]	–	4 ± 1	–	83.1 ± 1.29	–	282 to 283	–
Cc1ccc(Nc2nc3ccccc3c3[nH]nc(NC(=O)Nc4ccccc4)c23)cc1 [Compound 37, 1-Phenyl-3-[4-(p-tolylamino)-1H-pyrazolo[4,3-c]quinolin-3-yl]urea]	–	3 ± 1	–	82 ± 1.41	–	212 to 213	–
COc1ccc(NC(=O)Nc2n[nH]c3c2c(Nc2ccc(Cl)cc2)nc2ccccc23)cc1 [Compound 38, 1-{4-[(4-Chlorophenyl)amino]-1H-pyrazolo[4,3-c]quinolin-3-yl}-3-(4-methoxyphenyl)urea]	–	4 ± 1	–	85.5 ± 0.71	–	211 to 212	–
COc1ccc(NC(=O)Nc2n[nH]c3c2c(Nc2ccc(C)cc2)nc2ccccc23)cc1 [Compound 39, 1-(4-Methoxyphenyl)-3-[4-(p-tolylamino)-1H-pyrazolo[4,3-c]-quinolin-3-yl]urea]	–	3.5 ± 0.71	–	87.5 ± 2.12	–	163 to 164	–
